According to the CheMixHub viscosity set:

Assay: xn = mol fraction of the nth substance listed

CCN(CC)CCO + O
Conditions | viscosity [mPa·s]
293.15 K, 101 kPa, x1 = 0.062 | 4.536
298.15 K, 101 kPa, x1 = 0.062 | 3.689
298.15 K, 101.33 kPa, x1 = 0.0039 | 0.991
298.15 K, 101.33 kPa, x1 = 0.008 | 1.104
298.15 K, 101.33 kPa, x1 = 0.0121 | 1.233
298.15 K, 101.33 kPa, x1 = 0.0169 | 1.4
298.15 K, 101.33 kPa, x1 = 0.0261 | 1.752
298.15 K, 101.33 kPa, x1 = 0.0372 | 2.242
298.15 K, 101.33 kPa, x1 = 0.0602 | 3.439
298.15 K, 101.33 kPa, x1 = 0.0909 | 5.404
298.15 K, 101.33 kPa, x1 = 0.1326 | 8.287
298.15 K, 101.33 kPa, x1 = 0.1883 | 11.72
298.15 K, 101.33 kPa, x1 = 0.3136 | 15.25
298.15 K, 101.33 kPa, x1 = 0.4547 | 14.14
298.15 K, 101.33 kPa, x1 = 0.5001 | 13.45
298.15 K, 101.33 kPa, x1 = 0.6638 | 9.491
298.15 K, 101.33 kPa, x1 = 0.758 | 6.903
298.15 K, 101.33 kPa, x1 = 0.8765 | 5.478
298.15 K, 101.33 kPa, x1 = 0.9544 | 4.484
303.15 K, 100 kPa, x1 = 0.06181 | 3
303.15 K, 100 kPa, x1 = 0.09296 | 4.51
303.15 K, 101 kPa, x1 = 0.02641 | 1.53
303.15 K, 101 kPa, x1 = 0.062 | 3.048
303.15 K, 101 kPa, x1 = 0.1117 | 5.23
303.15 K, 101.33 kPa, x1 = 0.0039 | 0.885
303.15 K, 101.33 kPa, x1 = 0.008 | 0.98
303.15 K, 101.33 kPa, x1 = 0.0121 | 1.085
303.15 K, 101.33 kPa, x1 = 0.0169 | 1.219
303.15 K, 101.33 kPa, x1 = 0.0261 | 1.495
303.15 K, 101.33 kPa, x1 = 0.0372 | 1.887
303.15 K, 101.33 kPa, x1 = 0.0602 | 2.82
303.15 K, 101.33 kPa, x1 = 0.0909 | 4.364
303.15 K, 101.33 kPa, x1 = 0.1326 | 6.361
303.15 K, 101.33 kPa, x1 = 0.1883 | 8.984
303.15 K, 101.33 kPa, x1 = 0.3789 | 11.36
303.15 K, 101.33 kPa, x1 = 0.5883 | 8.745
303.15 K, 101.33 kPa, x1 = 0.6638 | 7.615
303.15 K, 101.33 kPa, x1 = 0.758 | 5.577
303.15 K, 101.33 kPa, x1 = 0.8765 | 4.459
303.15 K, 101.33 kPa, x1 = 0.9544 | 3.65
308.15 K, 101 kPa, x1 = 0.062 | 2.552
313.15 K, 100 kPa, x1 = 0.06181 | 2.13
313.15 K, 100 kPa, x1 = 0.09296 | 3.08
313.15 K, 101 kPa, x1 = 0.02641 | 1.18
313.15 K, 101 kPa, x1 = 0.06181 | 2.07
313.15 K, 101 kPa, x1 = 0.062 | 2.165
313.15 K, 101 kPa, x1 = 0.1117 | 3.5
313.15 K, 101.33 kPa, x1 = 0.0039 | 0.723
313.15 K, 101.33 kPa, x1 = 0.008 | 0.791
313.15 K, 101.33 kPa, x1 = 0.0121 | 0.866
313.15 K, 101.33 kPa, x1 = 0.0169 | 0.958
313.15 K, 101.33 kPa, x1 = 0.0261 | 1.149
313.15 K, 101.33 kPa, x1 = 0.0372 | 1.412
313.15 K, 101.33 kPa, x1 = 0.0602 | 2.016
313.15 K, 101.33 kPa, x1 = 0.0909 | 2.912
313.15 K, 101.33 kPa, x1 = 0.1326 | 4.179
313.15 K, 101.33 kPa, x1 = 0.1883 | 5.497
313.15 K, 101.33 kPa, x1 = 0.2629 | 6.627
313.15 K, 101.33 kPa, x1 = 0.3136 | 7.004
313.15 K, 101.33 kPa, x1 = 0.3789 | 7.054
313.15 K, 101.33 kPa, x1 = 0.4547 | 6.685
313.15 K, 101.33 kPa, x1 = 0.6638 | 4.668
313.15 K, 101.33 kPa, x1 = 0.758 | 3.694
313.15 K, 101.33 kPa, x1 = 0.8765 | 3.059
313.15 K, 101.33 kPa, x1 = 0.9544 | 2.639
318.15 K, 101 kPa, x1 = 0.062 | 1.86
323.15 K, 100 kPa, x1 = 0.06181 | 1.6
323.15 K, 101 kPa, x1 = 0.02641 | 0.93
323.15 K, 101 kPa, x1 = 0.06181 | 1.55
323.15 K, 101 kPa, x1 = 0.062 | 1.617
323.15 K, 101 kPa, x1 = 0.1117 | 2.51

CCCCN(CCC#N)CCCC + O=S=O
303.15 K, 100 kPa
Conditions | viscosity [mPa·s]
x2 = 0.17 | 4.1
x2 = 0.34 | 8
x2 = 0.45 | 13.8
